For one data set, the system named is serum glucose. Nature of the data set: Effective clinical dose of delivery agent in humans (delivery efficiency). The class given is in vivo, human. The procedure:
Next, delivery agents 1-3 were compared for the ability to efficiently transport an active agent across the GI mucosa in a biologically active form by determining the relationship between delivery agent dose, dose of active agent and the glucose response. The effective dose of delivery agent necessary to deliver a therapeutic dose of active agent and produce a therapeutic effect was measured. For delivery agent 3, the active agent was insulin, and the therapeutic effect was determined by the ability of the delivery agent/insulin combination to lower serum glucose by at least 10% within one hour post administration. For delivery agents 1 and 2, the active agent was heparin, and the therapeutic effect was determined by […]

Data set [1] in a line: Example 7: 4-CNAB plasma concentrations. The format is in vivo, human. Particulars: after start of meal intake; 200 or 400 mg 4-CNAB. The procedure:
Blood samples for determination of 4-CNAB plasma concentrations (2 mL in sodium heparin tube) were drawn 10, 20, 30, 40, 60, 90, 120, 240 and 360 minutes after start of meal intake (9 samples per session). Blood samples for determination of insulin and C-peptide plasma concentrations (5 mL in sodium heparin tube) were drawn at −60 and −30 minutes, at time 0 (start of meal intake), and after 10, 20, 30, 40, 50, 60, 75, 90, 105, 120, 150, 180, 210, 240, 300, and 360 minutes (19 samples per session). Plasma concentrations of insulin were determined by a GLP-validated microparticle enzyme immunoassay (MEIA).

For another data set, the system named is rhesus monkeys. To be noted: rhesus monkey, in vivo, 14 days. The procedure: The present invention comprising compositions of insulin and the delivery agent 4-CNAB was evaluated for safety and toxicity in a nonclinical program that included pharmacological screening, pharmacokinetic profiling, and toxicity assessments in rats and monkeys.
On the set-up of data set [2]: species or system rats. Particulars: rat, in vivo, po. The method, then: Similarly, for a fixed oral dose of 4-CNAB, insulin absorption increases with increasing doses of insulin. Oral insulin absorption was evaluated in rats at varying doses of both insulin and 4-CNAB. […] The mean peak serum insulin levels were 31, 44, 85, and 132 μU/mL respectively. Insulin absorption was dose dependent and increased as the dose of insulin increased. […] The mean peak serum insulin levels were 9, 39, 103, and 157 μU/mL, respectively. Insulin absorption was dose dependent and increased as the dose of 4-CNAB increased.

For a further data set, the system named is glucose infusion rate. Nature of the data set: Example 6: glucose clamp study, glucose infusion rate PD and relative biopotency. The class given is in vivo, human. To be noted: SC 15 U. From the text: The glucose clamp technique was applied to compare the time-action profiles of the orally applied insulin in comparison to SC regular insulin. This method utilizes negative feedback from frequent blood glucose sample values to adjust a glucose infusion to maintain a defined and constant blood glucose level. The glucose infusion rate therefore becomes a measure of the pharmacodynamic effect of any insulin administered.
During each study visit, stabilized individual blood glucose concentrations were maintained after drug administration using a glucose clamp procedure. The glucose clamp technique [DeFronzo, et al. 1979, Glucose Clamp Technique: A Method of Quantifying Insulin Secretion and Resistance, Am. J. Physiol. 237: E214-E223.] was use to compare the time-action profiles of the orally-applied insulin to s.c. insulin. This method utilizes negative feedback from frequent blood glucose sample values to adjust a glucose infusion to maintain euglycemia. The glucose infusion rate becomes a measure of the pharmacodynamic effect of any insulin administered.
The clamp level was adjusted by a variable intravenous (IV) insulin infusion and glucose infusion rate during a 6 hour baseline period before dosing. During the last 2 hours before administration of the study medication, the insulin infusion was set to a rate of 0.2 mU/kg/min, which rate was not changed until the end of the experiment. At t=0 minutes, exogenous insulin was administered by oral administration or by SC injection. The PD response elicited by the study medication was registered for another 6 hours. No food intake was allowed during this period, but water could be consumed as desired.
The glucose clamp procedure was performed using a Biostator (glucose controlled insulin infusion system—GCIIS, Life Science Instruments, Elkhart, Ind., USA). A 17-gauge PTFE catheter was inserted into an antecubital vein for blood sampling and kept patent with 0.15 mol/L saline. A dorsal hand vein or lateral wrist vein of the same arm was cannulated in retrograde fashion for insertion of an 18-gauge PTFE double lumen catheter connected to the glucose sensor of the Biostator. The catheterized hand was placed in a hot box and warmed to an air temperature of 55° C. On the contralateral arm, a third vein was cannulated with an 18-gauge PTFE catheter to infuse a glucose solution (20% in water). Into the same vein, an insulin solution (regular human insulin in 0.15 mol/L saline diluted with 2 mL of the patient's blood per 100 mL) was continuously infused by means of a syringe pump (Perfusor Secura FT, Braun, Melsungen, Germany).
The primary PD endpoint of the study was the area under the glucose infusion rate curve (AUCGIR) in the first hr after drug administration (AUCGIR 0-1h). The secondary endpoints for pharmacodynamic assessment were the following parameters: Maximum glucose infusion rate (GIRmax), time to GIRmax (tGIRmax), area under the glucose infusion rate curve in defined time-intervals (AUCGIR 0-2h, AUCGIR 0-3h, AUCGIR 0-4h, AUCGIR 0-5h, AUCGIR 0-6h), time to early and late half-maximum glucose infusion rate (early and late TGIR 50%), and maximum reduction of C-peptide concentrations.
PD parameters used for analysis were the maximum glucose infusion rate after application of the study drugs (GIRmax), the time to maximum glucose infusion rate (tGIRmax), time to half-maximum GIR values before GIRmax (early tGIR 50%), time to half-maximum GIR values after GIRmax (late tGIR 50%), and the area under the glucose infusion rate versus time curves from 0 to 60, 120, 180, 240, 300, and 360 min after dosing, and from 180 to 360 min post dose (AUCGIR 0-1h, AUCGIR 0-2h, AUCGIR 0-3h AUCGIR 0-4h, AUCGIR 0-5h, AUCGIR 0-6h, AUCGIR 3-6h, respectively). In addition, plasma concentrations of C-peptide and plasma glucose concentrations were used for PD analysis. […]

From patent publication US7429564B2, “Oral insulin therapy” (Emisphere Technologies, Inc., priority 2002, dated 2008) come the findings set out here.

With `O=C(O)CCCNC(=O)c1ccc(Cl)cc1O` [4-CNAB, 4-[(4-chloro, 2-hydroxybenzoyl)amino]butanoic acid], the “Effective clinical dose of delivery agent” value with serum glucose (active agent insulin, lowers serum glucose by at least 10% within one hour) was determined as 200 Mg. Besides, in the data set with serum glucose (effective dose ratio), the “Fold more efficient in facilitating transit across the GI mucosa vs delivery agent 1” value is listed as “approximately 12 fold” and the “Fold more efficient in facilitating transport across the GI mucosa vs delivery agent 2” value came out at 7.5 fold. Besides, the “4-CNAB plasma concentration after 2 hours relative to level at 10 minutes” value in data set [1] is “less than 10%”. Also, in the data set with rhesus monkeys, the “Highest proposed human dose (2000 mg) fold lower than NOAEL in monkeys” value is 12-16 fold.

Take “oral insulin alone: recombinant human zinc insulin given orally without delivery agent”: the “Change in serum insulin levels” value in data set [2] was “did not result in any significant increases in serum insulin levels”.

Turning to “SC insulin: human regular insulin injected subcutaneously (Humulin R or equivalent; Calbiochem insulin in the rat studies)”, in the data set with glucose infusion rate, the “GIR Early t50%” value is 150 ± 87 min, the GIRmax is 3.6 ± 1.8 mg/kg/min, the “Glucose infusion rate AUC0-1h” value is 27 ± 32 mg/kg and the “Glucose infusion rate AUC0-2h” value is 136.54 ± 106.54 mg/kg. Moreover, in the data set with glucose infusion rate, the “Glucose infusion rate AUC0-3h” value is reported as 271.43 ± 191.04 mg/kg, the “Glucose infusion rate AUC0-4h” value turned out to be 421.33 ± 264.76 mg/kg, the “Glucose infusion rate AUC0-5h” value came out at 548.83 ± 342.71 mg/kg and the “Glucose infusion rate AUC0-6h” value stood at 650.70 ± 380.16 mg/kg. The compound also gave a tGIRmax with glucose infusion rate of 255 ± 108 min. Moreover, in the data set with glucose infusion rate (listed as SC Regular Insulin), the “GIR Early t50%” value stood at 150.40 ± 87.44 min, the GIRmax is listed as 3.57 ± 1.79 mg/kg/min, the “Glucose infusion rate AUC0-1h” value is listed as 27.38 ± 32.22 mg/kg and the tGIRmax is 255.30 ± 108.15 min.
